Assay results published in ChEMBL document CHEMBL1137453, “Structure-activity relationship and biological property of cortistatins, anti-angiogenic spongean steroidal alkaloids” (Bioorg Med Chem, 2007).

Assays:
K562 = test: Antiproliferative activity against human K562 cells by WST-8 colorimetric assay; format: functional, cell-based
HUVEC = test: Antiproliferative activity against HUVEC cells by WST-8 colorimetric assay; format: cell-based; details: Homo sapiens
[1] = Antiproliferative activity against mouse Neuro-2A cells by WST-8 colorimetric assay; format: functional, cell-based; details: N2a
[2] = Antiproliferative activity against human KB3-1 cells by WST-8 colorimetric assay; format: functional, cell-based; details: KB 3-1
NHDF = test: Antiproliferative activity against NHDF cells by WST-8 colorimetric assay; format: functional, cell-based; details: Homo sapiens

SMILES | IC50 (K562) [nM] | IC50 (HUVEC) [nM] | IC50 [1] [nM] | IC50 [2] [nM] | IC50 (NHDF) [nM]
CN(C)[C@H]1C[C@@]23CC[C@@]4(O2)C(=CC[C@@]2(C)[C@H]4CC(=O)[C@]2(O)c2ccc4ccncc4c2)C=C3[C@@H](O)[C@@H]1O | > 300000 | 150 | > 300000 | 55000 | > 300000
CN(C)[C@H]1C[C@@]23CC[C@@]4(O2)C(=CC[C@@]2(C)[C@H]4C[C@H](O)[C@@H]2c2ccc4ccncc4c2)C=C3[C@@H](O)[C@@H]1O | 200000 | 1100 | 160000 | 120000 | > 300000
CC1CN(C)CCC1CCC(C)[C@H]1CC[C@@H]2[C@]1(C)CCC1=CC3=CC[C@@H](N(C)C)C[C@]34CC[C@@]12O4 (stereo not given in full) [CORTISTATIN E] | 2800 | 450 | 1900 | 2500 | 1900
CC1CN(C)CCC1CCC(C)[C@H]1CC[C@@H]2[C@]1(C)CC=C1C=C3C=C[C@@H](N(C)C)C[C@]34CC[C@@]12O4 (stereo not given in full) [CORTISTATIN F] | 4000 | 1900 | 4000 | 10800 | 4100
Cc1cnccc1/C=C/C(C)[C@H]1CC[C@@H]2[C@]1(C)CCC1=CC3=CC[C@@H](N(C)C)C[C@]34CC[C@@]12O4 (stereo not given in full) [CORTISTATIN G] | 3800 | 800 | 4000 | 8900 | 2900
Cc1cnccc1CCC(C)[C@H]1CC[C@@H]2[C@]1(C)CCC1=CC3=CC[C@@H](N(C)C)C[C@]34CC[C@@]12O4 (stereo not given in full) [CORTISTATIN H] | 2700 | 350 | 2200 | 2300 | 2700
CN(C)[C@@H]1C=CC2=CC3=CC[C@]4(C)[C@@H](c5ccc6ccncc6c5)CC[C@H]4[C@@]34CC[C@]2(C1)O4 [CORTISTATIN J] | 3300 | 8 | 3300 | 9100 | 2400
CN(C)[C@@H]1CC=C2C=C3CC[C@]4(C)[C@@H](c5ccc6ccncc6c5)CC[C@H]4[C@@]34CC[C@]2(C1)O4 [CORTISTATIN K] | 3900 | 40 | 3000 | 10200 | 2500
CN(C)[C@H]1C[C@@]23CC[C@@]4(O2)C(=CC3=C[C@@H]1O)CC[C@]1(C)[C@@H](c2ccc3ccncc3c2)CC[C@H]14 [CORTISTATIN L] | 4300 | 23 | 2800 | 14000 | 2400
